# Test results as given in patent US11111233B2, “Amino pyrimidine compound for inhibiting protein tyrosine kinase activity” (Shenzhen TargetRx, Inc., priority 2016, dated 2021).
# pIC50: −log10 of the molar value. Like-named read-outs stand apart in the source and are kept apart here.
# Columns and labels:
# [1] = system: Skin cancer cell line A431 (WT); assay: Cytotoxicity test (MTS cell viability), A431; format: cell-based; details: for IC50: A-431, 72 h, read-out: A431 (WT) IC50(nM); for pIC50: MTS, 72 hours, read-out: A431 (WT) IC50
# [2] = system: lung cancer cells HCC827 (Del19); assay: Cytotoxicity test (MTS cell viability), HCC827; format: cell-based; details: for IC50: HCC827, 72 h, read-out: HCC827 (Del19) IC50(nM); for pIC50: MTS, 72 hours, read-out: HCC827 (Del19) IC50
# WT EGFR = WT EGFR (Homo sapiens (Human), UniProt P00533); assay: Kinase inhibition assay (HTRF), WT EGFR; format: biochemical
# Sequence of WT EGFR (P00533 25-1210): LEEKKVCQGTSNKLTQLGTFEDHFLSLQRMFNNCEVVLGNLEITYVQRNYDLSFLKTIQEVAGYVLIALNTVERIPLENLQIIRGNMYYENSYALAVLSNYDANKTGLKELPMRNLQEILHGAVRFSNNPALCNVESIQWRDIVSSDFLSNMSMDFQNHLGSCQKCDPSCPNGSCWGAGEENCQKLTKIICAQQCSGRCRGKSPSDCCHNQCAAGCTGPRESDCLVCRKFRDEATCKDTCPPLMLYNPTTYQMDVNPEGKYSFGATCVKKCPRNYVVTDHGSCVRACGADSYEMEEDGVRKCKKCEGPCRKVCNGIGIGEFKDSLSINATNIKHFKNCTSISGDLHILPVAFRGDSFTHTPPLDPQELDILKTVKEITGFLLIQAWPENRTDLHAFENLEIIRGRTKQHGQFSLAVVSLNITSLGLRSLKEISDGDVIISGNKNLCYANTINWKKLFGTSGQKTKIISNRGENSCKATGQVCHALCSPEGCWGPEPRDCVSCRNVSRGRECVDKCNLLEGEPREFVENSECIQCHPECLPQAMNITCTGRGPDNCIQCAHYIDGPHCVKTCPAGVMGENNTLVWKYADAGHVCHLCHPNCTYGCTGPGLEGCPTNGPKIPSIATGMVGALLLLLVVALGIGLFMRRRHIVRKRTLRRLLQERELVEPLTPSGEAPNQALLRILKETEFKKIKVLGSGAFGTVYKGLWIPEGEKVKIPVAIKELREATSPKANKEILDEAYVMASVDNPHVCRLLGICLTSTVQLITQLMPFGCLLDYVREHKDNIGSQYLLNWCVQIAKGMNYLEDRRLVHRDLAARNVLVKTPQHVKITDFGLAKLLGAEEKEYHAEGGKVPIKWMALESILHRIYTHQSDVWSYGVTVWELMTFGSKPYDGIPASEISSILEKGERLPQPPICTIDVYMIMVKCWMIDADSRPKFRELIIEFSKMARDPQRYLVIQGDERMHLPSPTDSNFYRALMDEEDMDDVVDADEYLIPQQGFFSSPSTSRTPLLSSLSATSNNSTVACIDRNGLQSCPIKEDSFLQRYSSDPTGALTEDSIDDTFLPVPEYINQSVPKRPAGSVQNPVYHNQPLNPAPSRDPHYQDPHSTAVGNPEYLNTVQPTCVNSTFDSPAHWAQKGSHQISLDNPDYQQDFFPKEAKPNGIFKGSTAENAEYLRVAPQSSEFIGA
# EGFR [L858R/T790M] = EGFR [L858R/T790M] (Homo sapiens (Human), UniProt P00533, L858R/T790M); assay: Kinase inhibition assay (HTRF), EGFR [L858R/T790M]; format: biochemical
# Sequence of EGFR [L858R/T790M] (P00533 25-1210 T790M/L858R): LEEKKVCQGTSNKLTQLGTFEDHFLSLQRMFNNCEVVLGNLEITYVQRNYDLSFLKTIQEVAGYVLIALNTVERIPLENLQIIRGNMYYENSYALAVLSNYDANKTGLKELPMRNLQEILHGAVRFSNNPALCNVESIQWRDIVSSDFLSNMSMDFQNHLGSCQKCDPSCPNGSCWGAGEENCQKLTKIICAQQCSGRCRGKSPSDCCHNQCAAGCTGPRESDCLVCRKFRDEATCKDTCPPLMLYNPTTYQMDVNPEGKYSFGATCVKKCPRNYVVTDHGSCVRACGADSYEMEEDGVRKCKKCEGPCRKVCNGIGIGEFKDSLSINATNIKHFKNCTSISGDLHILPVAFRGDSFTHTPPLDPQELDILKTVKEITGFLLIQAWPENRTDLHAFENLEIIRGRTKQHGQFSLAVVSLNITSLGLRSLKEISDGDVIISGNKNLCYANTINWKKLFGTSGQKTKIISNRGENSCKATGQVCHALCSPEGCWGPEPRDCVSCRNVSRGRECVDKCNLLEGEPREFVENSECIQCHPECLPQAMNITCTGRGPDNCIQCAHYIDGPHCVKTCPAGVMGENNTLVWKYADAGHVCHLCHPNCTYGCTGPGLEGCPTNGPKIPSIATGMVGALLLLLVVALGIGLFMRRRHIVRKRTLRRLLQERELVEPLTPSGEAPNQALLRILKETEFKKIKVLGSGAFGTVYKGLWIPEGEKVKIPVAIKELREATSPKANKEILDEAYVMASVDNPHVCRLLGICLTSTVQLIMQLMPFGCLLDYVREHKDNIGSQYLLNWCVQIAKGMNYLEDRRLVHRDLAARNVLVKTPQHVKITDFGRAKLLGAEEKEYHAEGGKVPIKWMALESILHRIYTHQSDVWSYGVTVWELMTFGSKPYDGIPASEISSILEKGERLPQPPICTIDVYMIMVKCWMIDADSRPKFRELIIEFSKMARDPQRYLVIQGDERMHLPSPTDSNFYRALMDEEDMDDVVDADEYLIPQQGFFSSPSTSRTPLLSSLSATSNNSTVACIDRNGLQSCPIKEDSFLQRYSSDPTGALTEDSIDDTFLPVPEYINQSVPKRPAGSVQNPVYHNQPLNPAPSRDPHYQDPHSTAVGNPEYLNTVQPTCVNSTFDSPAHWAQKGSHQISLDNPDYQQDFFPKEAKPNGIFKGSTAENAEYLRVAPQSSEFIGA
# [3] = HTRF Kinase TK kit, 10 min pre-incubation, 20 min reaction
# [4] = HTRF Kinase TK kit, 10 min pre-incubation, 20 min reaction, read-out: EGFR(L858R/T790M) IC50
Compound,IC50 ([2]; Homo sapiens) [nM],pIC50 (WT EGFR; [3]),"pIC50 ([1]; Homo sapiens, A-431)",pIC50 (EGFR [L858R/T790M]; [4]),further results
"C=CC(=O)Nc1cc(Nc2nccc(-c3cn(C)c4ccccc34)n2)c(OC)cc1N(C)CCN(C)C [AZD9291, reference compound]",10 to 100,,,,IC50 ([1]; Homo sapiens): 100 to 400 nM
"C=CC(=O)Nc1cc(Nc2ncc(Cl)c(-c3cc(F)c4nc(C)n(C(C)C)c4c3)n2)c(OC)cc1N(C)CCN(C)C [Example 1, N-(2-((2-(dimethylamino)ethyl)(methyl)amino)-5-((5-chloro-4-(4-fluoro-1-isopropyl-2-methyl-1H-benzo[d]imidazole-6-yl)pyrimidin-2-yl)amino)-4-methoxyphenyl)acrylamide]",,7.30 to 9.00,< 6.00,,"pIC50 ([2]; Homo sapiens, HCC827): 7.00 to 8.00"
"C=CC(=O)Nc1cc(Nc2ncc(C)c(-c3cc(F)c4nc(C)n(C(C)C)c4c3)n2)c(OC)cc1N(C)CCN(C)C [Example 2, N-(2-((2-(dimethylamino)ethyl)(methyl)amino)-5-((5-methyl-4-(4-fluoro-1-isopropyl-2-methyl-1H-benzo[d]imidazole-6-yl)pyrimidin-2-yl)amino)-4-methoxyphenyl)acrylamide]",,7.30 to 9.00,< 6.00,> 9.00,"pIC50 ([2]; Homo sapiens, HCC827): 7.00 to 8.00"
"C=CC(=O)Nc1cc(Nc2ncc(OC)c(-c3cc(F)c4nc(C)n(C(C)C)c4c3)n2)c(OC)cc1N(C)CCN(C)C [Example 3, N-(2-((2-(dimethylamino)ethyl)(methyl)amino)-5-((5-methoxy-4-(4-fluoro-1-isopropyl-2-methyl-1H-benzo[d]imidazole-6-yl)pyrimidin-2-yl)amino)-4-methoxyphenyl)acrylamide]",,7.30 to 9.00,,7.30 to 9.00,
"C=CC(=O)Nc1cc(Nc2ncc(C(F)(F)F)c(-c3cc(F)c4nc(C)n(C(C)C)c4c3)n2)c(OC)cc1N(C)CCN(C)C [Example 4, N-(2-((2-(dimethylamino)ethyl)(methyl)amino)-5-((5-trifluoromethyl-4-(4-fluoro-1-isopropyl-2-methyl-1H-benzo[d]imidazole-6-yl)pyrimidin-2-yl)amino)-4-methoxyphenyl)acrylamide]",,7.30 to 9.00,,> 9.00,
"C=CC(=O)Nc1cc(Nc2nccc(-c3cc(F)c4nc5n(c4c3)C(C)(C)CC5)n2)c(OC)cc1N(C)CCN(C)C [Example 5, N-(2-((2-(dimethylamino)ethyl)(methyl)amino)-5-((4-(5-fluoro-1,1-dimethyl-2,3-dihydro-1H-benzo[d]imidazole[1,2-a]pyrrol-6-yl)pyrimidin-2-yl)amino)-4-methoxyphenyl)acryl amide]",,7.30 to 9.00,,> 9.00,
"C=CC(=O)Nc1cc(Nc2nccc(-c3cc(F)c4nc(OC)n(C(C)C)c4c3)n2)c(OC)cc1N(C)CCN(C)C [Example 6, N-(2-((2-(dimethylamino)ethyl)(methyl)amino)-5-((4-(4-fluoro-1-isopropyl-2-methoxy-1H-benzo[d]imidazole-6-yl)pyrimidin-2-yl)amino)-4-methoxyphenyl)acrylamide]",,7.30 to 9.00,< 6.00,> 9.00,"pIC50 ([2]; Homo sapiens, HCC827): 7.00 to 8.00"
C=CC(=O)Nc1cc(Nc2nccc(-c3cc(F)c4nc(OC)n(C(C)C)c4c3)n2)c(OC)cc1OCCN(C)C [Example 7],10 to 100,7.30 to 9.00,,,IC50 ([1]; Homo sapiens): > 1000 nM
"C=CC(=O)Nc1cc(Nc2ncc(Br)c(-c3cc(F)c4nc(C)n(C(C)C)c4c3)n2)c(OC)cc1N(C)CCN(C)C [Example 8, N-(2-((2-(dimethylamino)ethyl)(methyl)amino)-5-((5-bromo-4-(4-fluoro-1-isopropyl-2-methyl-1H-benzo[d]imidazole-6-yl)pyrimidin-2-yl)amino)-4-methoxyphenyl)acrylamide]",,7.30 to 9.00,< 6.00,7.30 to 9.00,"pIC50 ([2]; Homo sapiens, HCC827): 7.00 to 8.00"
"C=CC(=O)Nc1cc(Nc2ncc(C3CC3)c(-c3cc(F)c4nc(C)n(C(C)C)c4c3)n2)c(OC)cc1N(C)CCN(C)C [Example 9, N-(2-((2-(dimethylamino)ethyl)(methyl)amino)-5-((5-cyclopropyl-4-(4-fluoro-1-isopropyl-2-methyl-1H-benzo[d]imidazole-6-yl)pyrimidin-2-yl)amino)-4-methoxyphenyl)acrylamide]",,< 7.00,< 6.00,7.30 to 9.00,"pIC50 ([2]; Homo sapiens, HCC827): 6.00 to 6.40"
"C=CC(=O)Nc1cc(Nc2nccc(-c3cc(F)c4nc(C)n(C(C)C)c4c3)n2)c(OC)cc1OCCOC [Example 10, N-(2-(2-methoxy-ethyl-oxy)-5-((4-(4-fluoro-1-isopropyl-2-methyl-1H-benzo[d]imidazole-6-yl)pyrimidin-2-yl)amino)-4-methoxyphenyl)acrylamide]",400 to 1000,,< 6.00,,pIC50 (WT EGFR): < 7.00; pIC50 (EGFR [L858R/T790M]): 7.00 to 7.30
"C=CC(=O)Nc1cc(Nc2nccc(-c3cc(F)c4nc(C)n(C(C)C)c4c3)n2)c(OC)cc1SCCN(C)C [Example 11, N-(2-(2-(dimethylamino)ethyl)(thio)-5-((4-(4-fluoro-1-isopropyl-2-methyl-1H-benzo[d]imidazole-6-yl)pyrimidin-2-yl)amino)-4-methoxyphenyl)acrylamide]",10 to 100,7.30 to 9.00,,,IC50 ([1]; Homo sapiens): 400 to 1000 nM
"C=CC(=O)Nc1cc(Nc2nccc(-c3cc(F)c4nc(C)n(C(C)C)c4c3)n2)c(OC)cc1OCCN(C)C [Example 12, N-(2-(2-(dimethylamino)ethyl)(oxy)-5-((4-(4-fluoro-1-isopropyl-2-methyl-1H-benzo[d]imidazole-6-yl)pyrimidin-2-yl)amino)-4-methoxyphenyl)acrylamide]",< 10,,,,IC50 ([1]; Homo sapiens): 100 to 400 nM
C=CC(=O)Nc1cc(Nc2nccc(-c3cc(F)c4nc(C)n(C(C)C)c4c3)n2)c(OC)cc1N1CCC(N2CCOCC2)CC1 [Example 13],10 to 100,7.30 to 9.00,< 6.00,7.30 to 9.00,
C=CC(=O)Nc1cc(Nc2nccc(-c3cc(F)c4nc(C)n(C(C)C)c4c3)n2)c(OC)cc1N1CCC(OC)CC1 [Example 15],100 to 400,,< 6.00,7.30 to 9.00,
C=CC(=O)Nc1cc(Nc2nccc(-c3cc(F)c4nc(C)n(C(C)C)c4c3)n2)c(OC)cc1N1CCOCC1 [Example 16],100 to 400,,< 6.00,7.30 to 9.00,
"C=CC(=O)Nc1cc(Nc2ncc(C#N)c(-c3cc(F)c4nc(C)n(C(C)C)c4c3)n2)c(OC)cc1N(C)CCN(C)C [Example 18, N-(2-((2-(dimethylamino)ethyl)(methyl)amino)-5-((5-cyano-4-(4-fluoro-1-isopropyl-2-methyl-1H-benzo[d]imidazole-6-yl)pyrimidin-2-yl)amino)-4-methoxyphenyl)acrylamide]",,7.30 to 9.00,,> 9.00,
"C=CC(=O)Nc1cc(Nc2ncc(F)c(-c3cc(F)c4nc(C)n(C(C)C)c4c3)n2)c(OC)cc1N(C)CCN(C)C [Example 19, N-(2-((2-(dimethylamino)ethyl)(methyl)amino)-5-((5-fluoro-4-(4-fluoro-1-isopropyl-2-methyl-1H-benzo[d]imidazole-6-yl)pyrimidin-2-yl)amino)-4-methoxyphenyl)acrylamide]",,7.30 to 9.00,,> 9.00,
"C=CC(=O)Nc1cc(Nc2nccc(-c3cc(F)c4oc(C)nc4c3)n2)c(OC)cc1N(C)CCN(C)C [Example 31, N-(2-((2-(dimethylamino)ethyl)(methyl)amino)-5-((4-(7-fluoro-2-methylbenzo[d]oxazole-5-yl)pyrimidin-2-yl)amino)-4-methoxyphenyl)acrylamide]",,,< 6.00,,
"C=CC(=O)Nc1cc(Nc2nccc(-c3ccc4ncn(C(C)C)c4c3)n2)c(OC)cc1N(C)CCN(C)C [Example 36, N-(2-((2-(dimethylamino)ethyl)(methyl)amino)-5-((4-(1-isopropyl-1H-benzo[d]imidazole-6-yl)pyrimidin-2-yl)amino)-4-methoxyphenyl)acrylamide]",,7.30 to 9.00,,> 9.00,
"C=CC(=O)Nc1cc(Nc2nccc(-c3ccc4nc(C(F)(F)F)n(C(C)C)c4c3)n2)c(OC)cc1N(C)CCN(C)C [Example 37, N-(2-((2-(dimethylamino)ethyl)(methyl)amino)-5-((4-(1-isopropyl-2-(trifluoromethyl)-1H-benzo[d]imidazole-6-yl)pyrimidin-2-yl)amino)-4-methoxyphenyl)acrylamide]",,7.30 to 9.00,,7.30 to 9.00,
"C=CC(=O)Nc1cc(Nc2nccc(-c3cc(F)c4c(cnn4C)c3)n2)c(OC)cc1N(C)CCN(C)C [Example 39, N-(2-((2-(dimethylamino)ethyl)(methyl)amino)-5-((4-(7-fluoro-1-methyl-indazole-5-yl)pyrimidin-2-yl)amino)-4-methoxyphenyl)acrylamide]",,,,,IC50 ([1]; Homo sapiens): 100 to 400 nM
C=CC(=O)Nc1cc(Nc2nccc(-c3cc(F)c4nc(C)n(C(C)C)c4c3)n2)c(OC(F)F)cc1N(C)CCN(C)C [Example 47],< 10,7.30 to 9.00,6.00 to 6.40,,
"COc1cc(N2CCN(C)CC2)ccc1Nc1nccc(-c2cc(F)c3nc(C)n(C(C)C)c3c2)n1 [Example 54, 4-(4-fluoro-1-isopropyl-2-methyl-1H-benzo[d]imidazole-6-yl)-N-(2-methoxy-4-(4-methylpiperazin-1-yl)phenyl)pyrimidin-2-amine]",,,6.00 to 6.40,,
N-(2-(4-ethoxypiperidin)-1-yl)-5-((4-(4-fluoro-1-isopropyl-2-methyl-1H-benzo[d]imidazole-6-yl)pyrimidin-2-yl)amino)-4-methoxyphenyl)acrylamide [Example 14],,,,,pIC50 [1]: < 6.00; pIC50 [2]: 6.00 to 6.40
